Test results: ChEMBL document CHEMBL1201862, “PubChem BioAssay data set” (2004)
Active and inactive are the calls of the source.

Columns and labels:
[1] = target: Induced myeloid leukemia cell differentiation protein Mcl-1 (Homo sapiens, UniProt Q07820); format: functional
[2] = target: T1, Caspase-6 (Homo sapiens, UniProt P55212); assay: human caspase-6 inhibitors, dose response, biochemical, VEID-R110 fluorescence, cherry-pick (AID 720632)
T1 sequence (P55212 whole entry): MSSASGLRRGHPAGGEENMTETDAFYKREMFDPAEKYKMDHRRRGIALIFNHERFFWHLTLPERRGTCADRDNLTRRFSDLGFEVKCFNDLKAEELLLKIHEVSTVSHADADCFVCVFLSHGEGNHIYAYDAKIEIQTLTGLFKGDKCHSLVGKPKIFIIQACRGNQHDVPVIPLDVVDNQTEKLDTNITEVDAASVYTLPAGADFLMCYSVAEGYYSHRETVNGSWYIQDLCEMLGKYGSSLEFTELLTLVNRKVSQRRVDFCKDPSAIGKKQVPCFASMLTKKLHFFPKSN

[3] = target: T2, Carboxy-terminal domain RNA polymerase II polypeptide A small phosphatase 1 (Homo sapiens, UniProt Q9GZU7); assay: inhibitors of CTDSP1, concentration-response testing, biochemical assay, absorbance-based, actives from ultra-high-throughput screening (AID 540297); format: functional
T2 sequence (Q9GZU7 whole entry): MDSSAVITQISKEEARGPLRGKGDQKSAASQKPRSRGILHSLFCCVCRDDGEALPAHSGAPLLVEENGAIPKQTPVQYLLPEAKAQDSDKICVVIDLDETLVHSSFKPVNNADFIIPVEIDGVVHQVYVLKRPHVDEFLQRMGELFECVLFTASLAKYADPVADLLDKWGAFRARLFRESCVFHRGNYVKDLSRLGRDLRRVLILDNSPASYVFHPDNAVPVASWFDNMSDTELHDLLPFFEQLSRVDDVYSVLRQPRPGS

[4] = target: Caspase-7 (Homo sapiens, UniProt P55210); assay: human caspase-7 inhibitors, dose response, selectivity assay for caspase-6 inhibitor project, biochemical, DEVD-R110 fluorescence, cherry-pick (AID 743295)
[5] = Luminescence Cell-Based Dose Response HTS to Identify Activators of Luciferase Translation or Activity in H4 […] Cells. [Related pubchem assays: 1829 (Project Summary), 1814 (Primary HTS)]; format: functional
[6] = system: H4; assay: Luminescence Cell-Based Dose Response HTS to Identify Activators of 5'UTR Stem-Loop Driven Prion Protein mRNA Translation in H4 Neuroglioblastoma Cells. [Related pubchem assays: 1829 (Project Summary), 1814 (Primary HTS)]; format: functional; settings: Homo sapiens
[7] = target: T3, Oxysterols receptor LXR-beta (Homo sapiens, UniProt P55055); format: functional, cell-based;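 also: Cell-based luminescence dose-response assay of agonist activity at LXR, run as a confirmatory counterscreen to a daf-12 agonist screen; HEK293 cells with Gal4-LXR fusion and GAL4-driven luciferase reporter; agonist potency from rising luciferase signal of a Gal4-LXR reporter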
T3 sequence (P55055 whole entry): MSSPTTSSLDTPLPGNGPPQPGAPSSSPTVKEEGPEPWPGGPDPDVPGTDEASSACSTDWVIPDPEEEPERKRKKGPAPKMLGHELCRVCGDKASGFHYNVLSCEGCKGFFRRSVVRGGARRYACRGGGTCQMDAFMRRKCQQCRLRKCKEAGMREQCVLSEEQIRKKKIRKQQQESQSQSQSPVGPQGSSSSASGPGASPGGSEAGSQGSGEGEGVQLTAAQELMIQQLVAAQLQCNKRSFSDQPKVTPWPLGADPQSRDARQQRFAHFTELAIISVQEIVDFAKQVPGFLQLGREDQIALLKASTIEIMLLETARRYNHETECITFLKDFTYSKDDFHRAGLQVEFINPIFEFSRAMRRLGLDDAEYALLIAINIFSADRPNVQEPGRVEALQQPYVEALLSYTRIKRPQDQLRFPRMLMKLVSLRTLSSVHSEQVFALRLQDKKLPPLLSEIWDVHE

[8] = target: T4, Protein skinhead-1 (Caenorhabditis elegans, UniProt P34707); format: functional
T4 sequence (P34707 whole entry): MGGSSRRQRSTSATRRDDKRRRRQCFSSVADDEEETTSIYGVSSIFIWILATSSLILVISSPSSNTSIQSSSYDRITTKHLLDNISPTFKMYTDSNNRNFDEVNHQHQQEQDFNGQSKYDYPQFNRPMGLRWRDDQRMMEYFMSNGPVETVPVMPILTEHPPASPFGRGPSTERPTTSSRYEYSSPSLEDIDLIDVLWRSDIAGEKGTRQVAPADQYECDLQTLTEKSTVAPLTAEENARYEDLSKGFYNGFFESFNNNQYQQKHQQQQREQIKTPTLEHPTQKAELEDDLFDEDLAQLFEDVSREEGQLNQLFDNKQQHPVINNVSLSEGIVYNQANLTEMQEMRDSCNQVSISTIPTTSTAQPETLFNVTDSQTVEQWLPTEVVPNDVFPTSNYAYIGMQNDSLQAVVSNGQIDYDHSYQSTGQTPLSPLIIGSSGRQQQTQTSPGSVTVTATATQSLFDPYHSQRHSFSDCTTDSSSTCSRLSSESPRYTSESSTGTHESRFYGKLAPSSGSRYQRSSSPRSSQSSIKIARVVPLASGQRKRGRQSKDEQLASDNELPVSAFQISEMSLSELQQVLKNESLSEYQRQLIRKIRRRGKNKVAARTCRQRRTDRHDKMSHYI

[9] = cells
[10] = target: Glucose-6-phosphate 1-dehydrogenase (Homo sapiens, UniProt P11413); assay: human G6PD enzyme inhibitors, dose response, selectivity assay for P. falciparum G6PD inhibitor project, biochemical, fluorescence (AID 504792); format: functional
[11] = HepG2 cell cytotoxicity, dose response, cytotoxicity control, ATP luminescence, cherry-pick, activator set 2 (AID 1053143); format: functional, cell-based
[12] = target: Dual specificity tyrosine-phosphorylation-regulated kinase 1A (Rattus norvegicus, UniProt Q63470); format: biochemical, Homo sapiens
[13] = target: fMet-Leu-Phe receptor (Homo sapiens, UniProt P21462); assay: FPR ligands, dose response (AID 519); format: functional
[14] = Luminescence Cell-Based Dose Confirmation HTS to Identify Inhibitors of Platelet Dense Granule Release. [Related pubchem assays: 1663 (Primary HTS), 1678 (Summary of Project)]; format: functional
[15] = target: Luciferin 4-monooxygenase (Photinus pyralis, UniProt P08659); assay: firefly luciferase enzyme inhibitors, dose response, biochemical, luminescence (AID 1891)
[16] = target: Cytochrome P450 2C9 (Homo sapiens, UniProt P11712)
[17] = target: Kallikrein-7 (Homo sapiens, UniProt P49862); assay: Fluorescence Intensity-based biochemical primary high throughput dose response assay to identify activators of kallikrein-7 (K7) zymogen.
[18] = target: Paired box protein Pax-8 (Homo sapiens, UniProt Q06710); assay: inhibitors of PAX8-driven TPO luciferase reporter, dose response, RMG-I cells, cherry-pick (AID 687027); format: functional, cell-based;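 also: luciferase reporter driven by Pax8 target thyroperoxidase promoter measured by SteadyGlo luminescence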
[19] = non-specific cell cytotoxicity, dose response, cytotoxicity control for PAX8 inhibitor project, plate reader, dry powder samples (AID 743021); format: functional, cell-based
[20] = HEK293T cytotoxicity, dose response, cytotoxicity control for miR-122 modulator project, cell-based, inhibitor set, cherry-pick, set 2 (AID 720697); format: functional
[21] = NIH:OVCAR-3 ovarian cancer cell cytotoxicity, dose response, PAX8 inhibitor project, plate reader, dry powder samples (AID 743044); format: functional, cell-based
[22] = inhibitors of PGC1a acetylation in cells, dose response, cell-based, cherry-picked samples (AID 720514); format: functional;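 also: potency may reflect raised or lowered acetylation signal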
[23] = miR-122 activators in hepatoma reporter cells, dose response, cell-based, Huh7 psiCHECK-miR122, Renilla luciferase, cherry-picked (AID 651956); format: functional;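 also: huh7 hepatoma cells stably carrying a psiCHECK-2 miR-122 sensor plasmid; renilla luciferase signal reporting endogenous miR-122 activity after 48 h compound exposure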
[24] = P. falciparum Dd2 growth inhibitors, dose response, SYBR Green, cherry-picked samples (AID 1159567); format: functional, cell-based
[25] = HepG2 cell cytotoxicity, dose response, cytotoxicity control, cherry-picked samples (AID 1159577); format: functional, cell-based
[26] = cells; format: functional, cell-based
[27] = target: Mu-type opioid receptor (Homo sapiens, UniProt P35372); format: functional, cell-based;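 also: U2OS cells with beta-arrestin recruitment to OPRM1 by beta-gal complementation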
[28] = target: T5, Zinc finger protein mex-5 (Caenorhabditis elegans, UniProt Q9XUB2); assay: MEX-5/TCR-2 RNA interaction inhibitors, dose response, biochemical, C. elegans, fluorescence polarization (AID 1960)
T5 sequence (Q9XUB2 whole entry): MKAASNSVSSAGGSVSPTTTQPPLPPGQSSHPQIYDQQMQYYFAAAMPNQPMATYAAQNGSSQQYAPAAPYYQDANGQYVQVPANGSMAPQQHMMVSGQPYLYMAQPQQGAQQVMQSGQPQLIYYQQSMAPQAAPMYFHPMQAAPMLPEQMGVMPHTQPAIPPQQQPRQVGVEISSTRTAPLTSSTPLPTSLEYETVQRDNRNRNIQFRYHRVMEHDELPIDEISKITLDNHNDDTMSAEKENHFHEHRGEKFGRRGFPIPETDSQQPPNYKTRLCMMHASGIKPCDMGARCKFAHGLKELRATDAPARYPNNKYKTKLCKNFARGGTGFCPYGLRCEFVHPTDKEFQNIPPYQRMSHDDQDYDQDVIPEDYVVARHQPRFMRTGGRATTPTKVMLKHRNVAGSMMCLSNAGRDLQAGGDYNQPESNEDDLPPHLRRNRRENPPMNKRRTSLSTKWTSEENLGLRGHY

[29] = target: 5-hydroxytryptamine receptor 2A (Mus musculus, UniProt P35363); format: functional, cell-based;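 also: CHO-K1 cells with tagged receptor and beta-arrestin; agonist potency measured as compound-induced activation of the receptor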
[30] = target: T6, Trace amine-associated receptor 1 (Homo sapiens, UniProt Q96RJ0); assay: Fluorescence-based cell-based high throughput dose response assay to identify agonists of the human trace amine associated receptor 1 (TAAR1).; format: functional
T6 sequence (Q96RJ0 whole entry): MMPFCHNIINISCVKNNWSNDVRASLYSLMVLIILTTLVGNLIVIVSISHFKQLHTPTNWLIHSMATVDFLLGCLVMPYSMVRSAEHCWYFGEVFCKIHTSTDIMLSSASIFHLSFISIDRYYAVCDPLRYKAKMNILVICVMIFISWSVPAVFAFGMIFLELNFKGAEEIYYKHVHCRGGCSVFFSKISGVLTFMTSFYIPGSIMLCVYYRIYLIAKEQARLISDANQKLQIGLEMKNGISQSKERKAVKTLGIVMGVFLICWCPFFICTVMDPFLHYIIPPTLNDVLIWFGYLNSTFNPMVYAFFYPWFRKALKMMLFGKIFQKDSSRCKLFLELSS

[31] = cells; format: functional, cell-based; remark: listed apart in the source
[32] = target: T7, RNA-binding protein pos-1 (Caenorhabditis elegans, UniProt G5EF15); assay: inhibitors of POS-1/mex-3 RNA binding, dose response, biochemical, fluorescence polarization (AID 1964);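 also: purified POS-1 fused to maltose binding protein made in E. coli; potency of compounds blocking POS-1 binding to fluorescent RNA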
T7 sequence (G5EF15 whole entry): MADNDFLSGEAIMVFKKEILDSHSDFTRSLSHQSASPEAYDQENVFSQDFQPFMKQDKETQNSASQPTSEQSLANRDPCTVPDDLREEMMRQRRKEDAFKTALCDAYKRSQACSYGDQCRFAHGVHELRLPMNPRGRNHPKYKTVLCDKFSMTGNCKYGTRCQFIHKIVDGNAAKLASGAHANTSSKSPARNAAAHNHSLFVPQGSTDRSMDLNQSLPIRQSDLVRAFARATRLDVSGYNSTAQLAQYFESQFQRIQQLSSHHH

[33] = target: T6, Trace amine-associated receptor 1; assay: Counterscreen for agonists of the human trace amine associated receptor 1 (hTAAR1): Fluorescence-based cell-based high throughput dose response assay to identify hTAAR1 agonist that also desensitize TAAR1 receptor response.; format: functional

Paired box protein Pax-8, sequence (Q06710 whole entry): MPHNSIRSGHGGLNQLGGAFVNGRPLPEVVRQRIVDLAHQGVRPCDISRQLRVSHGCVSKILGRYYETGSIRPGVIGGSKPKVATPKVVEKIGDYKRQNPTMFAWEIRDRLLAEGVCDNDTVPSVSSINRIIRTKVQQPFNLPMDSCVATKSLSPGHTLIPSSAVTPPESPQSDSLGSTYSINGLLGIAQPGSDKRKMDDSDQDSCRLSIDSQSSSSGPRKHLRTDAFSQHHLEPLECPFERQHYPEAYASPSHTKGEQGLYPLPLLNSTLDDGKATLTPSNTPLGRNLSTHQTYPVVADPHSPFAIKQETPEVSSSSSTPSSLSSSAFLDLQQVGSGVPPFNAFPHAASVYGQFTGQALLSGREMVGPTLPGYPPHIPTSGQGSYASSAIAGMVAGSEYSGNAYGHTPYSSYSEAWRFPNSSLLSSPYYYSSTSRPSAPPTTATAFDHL
fMet-Leu-Phe receptor, sequence (P21462 whole entry): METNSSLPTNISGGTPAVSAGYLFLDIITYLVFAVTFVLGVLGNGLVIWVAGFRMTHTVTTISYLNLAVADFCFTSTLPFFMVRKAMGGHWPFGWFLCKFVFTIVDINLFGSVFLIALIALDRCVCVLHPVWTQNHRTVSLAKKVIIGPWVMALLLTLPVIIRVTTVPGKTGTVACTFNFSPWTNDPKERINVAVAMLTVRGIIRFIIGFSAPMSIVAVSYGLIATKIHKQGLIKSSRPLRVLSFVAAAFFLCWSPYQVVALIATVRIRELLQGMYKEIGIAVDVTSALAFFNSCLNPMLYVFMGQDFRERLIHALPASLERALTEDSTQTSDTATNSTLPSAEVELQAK
Kallikrein-7, sequence (P49862 whole entry): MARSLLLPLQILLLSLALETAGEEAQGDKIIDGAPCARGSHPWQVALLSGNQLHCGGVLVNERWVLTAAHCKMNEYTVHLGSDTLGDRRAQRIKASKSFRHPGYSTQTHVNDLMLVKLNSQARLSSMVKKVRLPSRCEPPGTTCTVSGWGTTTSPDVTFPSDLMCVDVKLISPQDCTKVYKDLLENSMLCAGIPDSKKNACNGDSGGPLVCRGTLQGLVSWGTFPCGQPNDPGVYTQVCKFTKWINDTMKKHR
Induced myeloid leukemia cell differentiation protein Mcl-1, sequence (Q07820 whole entry): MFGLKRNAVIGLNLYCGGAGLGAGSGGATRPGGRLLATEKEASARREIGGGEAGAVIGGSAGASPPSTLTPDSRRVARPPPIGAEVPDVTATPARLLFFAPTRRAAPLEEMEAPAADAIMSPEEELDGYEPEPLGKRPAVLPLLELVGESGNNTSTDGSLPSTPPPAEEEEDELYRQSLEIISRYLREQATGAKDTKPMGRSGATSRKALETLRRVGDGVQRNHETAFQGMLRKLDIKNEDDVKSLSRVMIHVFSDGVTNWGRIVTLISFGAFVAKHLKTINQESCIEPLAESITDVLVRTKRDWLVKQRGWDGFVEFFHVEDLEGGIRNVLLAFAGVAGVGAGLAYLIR
Glucose-6-phosphate 1-dehydrogenase, sequence (P11413 whole entry): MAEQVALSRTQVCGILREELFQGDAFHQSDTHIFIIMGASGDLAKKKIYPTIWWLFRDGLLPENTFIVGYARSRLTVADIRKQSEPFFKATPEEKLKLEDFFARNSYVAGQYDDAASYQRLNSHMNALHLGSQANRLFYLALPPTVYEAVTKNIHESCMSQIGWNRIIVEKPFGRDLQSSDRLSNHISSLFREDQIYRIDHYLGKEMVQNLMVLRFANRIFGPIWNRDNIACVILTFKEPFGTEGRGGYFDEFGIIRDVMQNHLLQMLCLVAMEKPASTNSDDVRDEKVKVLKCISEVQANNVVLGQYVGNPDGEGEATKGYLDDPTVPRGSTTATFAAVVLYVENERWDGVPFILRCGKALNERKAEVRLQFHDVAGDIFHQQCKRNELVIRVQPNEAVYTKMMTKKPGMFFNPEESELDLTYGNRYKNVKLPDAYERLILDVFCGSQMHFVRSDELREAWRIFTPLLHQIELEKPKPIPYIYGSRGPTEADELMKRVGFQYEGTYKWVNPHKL
5-hydroxytryptamine receptor 2A, sequence (P35363 whole entry): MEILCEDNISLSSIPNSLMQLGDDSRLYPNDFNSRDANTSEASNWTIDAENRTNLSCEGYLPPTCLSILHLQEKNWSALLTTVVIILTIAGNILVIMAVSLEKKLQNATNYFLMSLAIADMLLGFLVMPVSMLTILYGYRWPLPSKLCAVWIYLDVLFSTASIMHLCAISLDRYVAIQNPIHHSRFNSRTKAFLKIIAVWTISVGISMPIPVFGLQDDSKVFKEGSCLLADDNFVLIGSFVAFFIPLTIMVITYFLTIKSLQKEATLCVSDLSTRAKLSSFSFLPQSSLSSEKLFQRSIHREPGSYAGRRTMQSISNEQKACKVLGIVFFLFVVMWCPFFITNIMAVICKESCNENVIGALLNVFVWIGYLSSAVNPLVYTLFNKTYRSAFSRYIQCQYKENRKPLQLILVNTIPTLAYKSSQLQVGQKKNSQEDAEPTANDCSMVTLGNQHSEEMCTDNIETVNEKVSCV
Luciferin 4-monooxygenase, sequence (P08659 whole entry): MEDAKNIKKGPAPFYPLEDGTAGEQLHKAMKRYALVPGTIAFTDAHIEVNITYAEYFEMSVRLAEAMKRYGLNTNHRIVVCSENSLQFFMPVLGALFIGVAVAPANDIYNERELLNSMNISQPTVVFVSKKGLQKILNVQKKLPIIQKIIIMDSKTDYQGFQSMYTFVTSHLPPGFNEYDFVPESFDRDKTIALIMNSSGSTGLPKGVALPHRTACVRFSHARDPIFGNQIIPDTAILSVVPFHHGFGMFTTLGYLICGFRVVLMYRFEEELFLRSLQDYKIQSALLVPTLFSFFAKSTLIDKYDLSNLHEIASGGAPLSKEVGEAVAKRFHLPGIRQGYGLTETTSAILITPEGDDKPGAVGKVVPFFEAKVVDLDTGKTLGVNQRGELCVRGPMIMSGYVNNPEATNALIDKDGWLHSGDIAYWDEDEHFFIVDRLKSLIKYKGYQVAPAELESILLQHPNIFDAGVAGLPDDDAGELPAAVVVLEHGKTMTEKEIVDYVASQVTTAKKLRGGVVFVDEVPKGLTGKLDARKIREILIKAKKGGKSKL
Caspase-7, sequence (P55210 24-198 limits assumed): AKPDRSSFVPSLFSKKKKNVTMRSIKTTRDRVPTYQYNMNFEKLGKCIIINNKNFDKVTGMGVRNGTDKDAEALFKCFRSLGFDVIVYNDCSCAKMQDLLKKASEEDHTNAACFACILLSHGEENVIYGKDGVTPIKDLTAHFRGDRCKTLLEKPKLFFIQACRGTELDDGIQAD
Caspase-7, sequence (P55210 207-303 limits assumed): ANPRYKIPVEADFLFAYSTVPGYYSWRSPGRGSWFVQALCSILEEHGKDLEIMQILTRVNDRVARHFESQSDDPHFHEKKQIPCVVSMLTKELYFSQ
Cytochrome P450 2C9, sequence (P11712 whole entry): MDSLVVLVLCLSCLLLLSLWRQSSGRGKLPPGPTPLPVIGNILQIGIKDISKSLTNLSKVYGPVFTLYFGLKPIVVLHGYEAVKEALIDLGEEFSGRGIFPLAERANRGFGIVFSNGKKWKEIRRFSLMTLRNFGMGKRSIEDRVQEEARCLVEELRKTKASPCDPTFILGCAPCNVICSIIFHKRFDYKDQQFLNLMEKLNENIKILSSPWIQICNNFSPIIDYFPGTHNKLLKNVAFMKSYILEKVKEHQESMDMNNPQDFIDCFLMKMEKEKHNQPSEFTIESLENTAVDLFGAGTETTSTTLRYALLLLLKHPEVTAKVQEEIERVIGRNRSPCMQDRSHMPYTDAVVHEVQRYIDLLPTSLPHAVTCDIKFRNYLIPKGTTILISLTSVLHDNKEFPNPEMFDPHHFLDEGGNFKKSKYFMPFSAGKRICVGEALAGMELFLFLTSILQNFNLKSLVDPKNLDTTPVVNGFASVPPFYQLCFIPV
Mu-type opioid receptor, sequence (P35372 whole entry): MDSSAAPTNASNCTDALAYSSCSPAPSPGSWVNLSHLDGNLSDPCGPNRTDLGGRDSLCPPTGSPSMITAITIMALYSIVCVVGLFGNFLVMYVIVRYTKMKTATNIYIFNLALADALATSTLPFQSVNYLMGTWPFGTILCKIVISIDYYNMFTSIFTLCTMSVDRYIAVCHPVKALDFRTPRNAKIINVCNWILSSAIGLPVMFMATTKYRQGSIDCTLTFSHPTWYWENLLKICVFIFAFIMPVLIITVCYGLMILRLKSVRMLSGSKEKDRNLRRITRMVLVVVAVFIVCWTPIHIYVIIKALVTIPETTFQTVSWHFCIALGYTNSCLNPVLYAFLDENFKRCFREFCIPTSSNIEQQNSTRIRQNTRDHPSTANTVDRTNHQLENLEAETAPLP

CCCSC1=N/C(=C\c2ccc([N+](=O)[O-])o2)C(=O)S1
IC50 [1]: 3.88 µM (active)
AC50 [2]: 2.93 µM (active)
IC50 [3]: 4.92 µM (active)
AC50 [4]: 45.9 µM (active)

Cc1nc(NC(=O)c2cccs2)ccc1Br
EC50 [5]: 13.2 µM (active)
EC50 [6]: 129 nM (active)
EC50 [7]: > 67.5 µM (inactive)
IC50 [8]: 24.4 µM (active)
EC50 [9]: > 67.5 µM (inactive)

CN1/C(=C\C(=O)c2cccs2)Sc2ccccc21
EC50 [7]: > 67.5 µM (inactive)
EC50 [9]: > 67.5 µM (inactive)
IC50 [10]: > 80 µM (inactive)

O=[N+]([O-])c1ccccc1-c1cc(-c2ccccc2O)n[nH]1
AC50 [11]: 26 µM (active)
AC50 [12]: 7.59 µM (active)

COc1cccc(C(=O)C2=C(O)C(=O)N(Cc3cccnc3)C2c2ccco2)c1 (configuration not stated)
Ki [13]: > 66.7 µM (inactive)

CCOC(=O)c1sc(NC(=O)c2sccc2C)cc1C
AC50 [11]: 12.8 µM (active)
EC50 [14]: 3.04 µM (active)
EC50 [15]: 409 nM (active)

COc1ccc(-c2c(C)oc3c(CN4CCN(CCO)CC4)c(O)ccc3c2=O)cc1OC
Ki [13]: > 66.7 µM (inactive)
AC50 [16]: 447 nM (inconclusive)

CN(C(=O)c1cc2c(=O)n3ccccc3nc2s1)C1CCCCC1
EC50 [17]: 24.8 µM (inactive)

N=C(N)N/N=C(\c1ccc(F)cc1)c1ccc(C(F)(F)F)cc1
AC50 [18]: 3.32 µM (active)
AC50 [19]: 39.9 µM (active)

COc1ccc(C#Cc2ccc([C@H]3[C@@H](CO)N4CCCCN(C(=O)Nc5ccccc5)C[C@H]34)cc2)cc1
AC50 [20]: 7.88 µM (active)
AC50 [18]: 12.5 µM (active)
AC50 [21]: 30.4 µM (active)
AC50 [22]: 16.4 µM (active)
AC50 [23]: 6.04 µM (active)

O=C1CN(S(=O)(=O)Cc2ccccc2)C[C@H]2[C@H](c3ccc(C#Cc4ccc(F)cc4)cc3)[C@H](CO)N12
AC50 [18]: 8.12 µM (active)
AC50 [21]: 32.6 µM (active)
AC50 [19]: 56 µM (active)

O=S(=O)(Cc1ccccc1)N1CCCCN2[C@@H](CO)[C@H](c3ccc(C#Cc4ccccc4)cc3)[C@@H]2C1
AC50 [24]: 4.25 µM (active)
AC50 [25]: 8.93 µM (active)

CN1C[C@H](CO)C=C2c3cccc4[nH]cc(c34)C[C@H]21
EC50 [26]: > 29.9 µM (inactive)
EC50 [27]: 92.5 µM (inactive)
EC50 [28]: 53.2 µM (inconclusive)
EC50 [29]: 18 nM (active)
EC50 [30]: 7.63 µM (active)
EC50 [17]: > 7.72 µM (active)
IC50 [31]: > 29.9 µM (inactive)
EC50 [32]: 20.6 µM (active)
IC50 [33]: 4.58 µM (active)
